Measured values reported in patent US12559505B2, “IDH mutant inhibitor and use thereof” (WIGEN BIOMEDICINE TECHNOLOGY (SHANGHAI) CO., LTD., priority 2020, dated 2026).

Molecular target: T1, IDH R132C (Homo sapiens, UniProt O75874, R132C)
T1 construct: expressed in transfected cells; host or cells: U87 cells
Test: Detection of 2-HG in supernatant of U87-IDH R132C cells
Assay type: cell-based
Conditions: 72 h, LC-MS-MS, vs control; for inhibition at 0.001 µM: read-out: Inhibition rate of compounds on 2-HG in the supernatant of U87-IDH R132C cells, 1 nM; for inhibition at 0.01 µM: read-out: Inhibition rate of compounds on 2-HG in the supernatant of U87-IDH R132C cells, 10 nM; for inhibition at 0.1 µM: read-out: Inhibition rate of compounds on 2-HG in the supernatant of U87-IDH R132C cells, 100 nM
Experimental: U87 cells overexpressing the IDH R132C mutation were seeded in a 48-well plate at 50,000 cells/well. After the cells were incubated overnight for adhesion, the supernatant was removed. The cell culture media containing serially diluted compounds were added, and the cells were incubated for 72 h. After 72 h, the cultures were collected and diluted 10-fold with water, and acetonitrile was added to extract the metabolites. The 2-HG content in the cultures was analyzed by LC-MS-MS, and the percentage inhibition of compounds on 2-HG in the supernatant was calculated as compared with the control.

T1 sequence (O75874 whole entry R132C): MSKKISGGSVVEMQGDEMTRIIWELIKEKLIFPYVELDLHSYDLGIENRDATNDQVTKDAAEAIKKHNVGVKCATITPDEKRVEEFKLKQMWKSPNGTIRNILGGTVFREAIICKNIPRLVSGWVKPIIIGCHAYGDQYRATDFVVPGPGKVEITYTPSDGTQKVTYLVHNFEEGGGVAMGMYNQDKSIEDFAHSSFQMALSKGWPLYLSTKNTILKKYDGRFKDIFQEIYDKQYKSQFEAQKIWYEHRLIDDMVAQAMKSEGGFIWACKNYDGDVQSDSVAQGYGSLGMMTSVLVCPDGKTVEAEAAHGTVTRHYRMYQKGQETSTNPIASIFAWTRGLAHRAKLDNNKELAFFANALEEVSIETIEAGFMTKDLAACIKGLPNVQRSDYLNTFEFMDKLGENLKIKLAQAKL

Structure (SMILES)	inhibition at 0.001 µM (1 nM compound) [%]	inhibition at 0.01 µM (10 nM compound) [%]	inhibition at 0.1 µM (100 nM compound) [%]	Inhibition rate of compounds on 2-HG in the supernatant of U87-IDH R132C cells, 1 nM (1 nM compound)	Inhibition rate of compounds on 2-HG in the supernatant of U87-IDH R132C cells, 10 nM (10 nM compound)	Inhibition rate of compounds on 2-HG in the supernatant of U87-IDH R132C cells, 100 nM (100 nM compound)
C=CC(=O)N1CC2(C1)CN([C@@H](CC)c1ccc([C@H](C)Nc3ncc4c(n3)N(CC)C(=O)OC4)cc1)C2 [Compound 36-1]	60 to 90	> 90	> 90	–	–	–
C=CC(=O)NC1CCN(C(CC2CC2)c2ccc([C@H](C)Nc3ncc4c(n3)N(CC)C(=O)OC4)cc2)CC1 (stereo partly drawn) [Compound 11]	30 to 60	> 90	> 90	–	–	–
C=CC(=O)N1CCN([C@@H](CC23CC(C2)C3)c2ccc([C@H](C)Nc3ncc4c(n3)N(CC)C(=O)OC4)cc2)CC1 [Compound 157-1]	60 to 90	> 90	> 90	–	–	–
C=CC(=O)N1CCN([C@H](CC23CC(C2)C3)c2ccc([C@H](C)Nc3ncc4c(n3)N(CC)C(=O)OC4)cc2)CC1 [Compound 157-2]	30 to 60	60 to 90	> 90	–	–	–
C=CC(=O)N1CC2(C1)CN(C(CC13CC(C1)C3)c1ccc([C@H](C)Nc3ncc4c(n3)N(CC)C(=O)NC4)cc1)C2 (stereo partly drawn) [Compound 72]	60 to 90	> 90	> 90	–	–	–
C=CC(=O)N1CCN(C(CC2CCC2)c2ccc(C3(Nc4ncc5c(n4)N(CC)C(=O)OC5)CC3)cc2)CC1 (stereo not drawn) [Compound 153]	30 to 60	60 to 90	> 90	–	–	–
C=CC(=O)N1CCN(C(CC2CC2)c2ccc(C3(Nc4ncc5cnc(=O)n(C(C)C)c5n4)CC3)cc2)CC1 (stereo not drawn) [Compound 106]	30 to 60	60 to 90	> 90	–	–	–
C=CC(=O)N1CC2(C1)CN(C(CC)c1ccc([C@H](C)Nc3ncc4c(n3)N(C(C)C)C(=O)OC4)cc1)C2 (stereo partly drawn) [Compound 46]	60 to 90	> 90	> 90	–	–	–
C=CC(=O)N1CCN([C@H](CC2CC2)c2ccc([C@H](C)Nc3ncc4cnc(=O)n(C(C)C)c4n3)cc2)CC1 [Compound 85-2]	30 to 60	60 to 90	> 90	–	–	–
C=CC(=O)N1CCN(C(CC2CC2)c2ccc(C3(Nc4ncc5c(n4)N(CC)C(=O)OC5)CC3)cc2)CC1 (stereo not drawn) [Compound 152]	30 to 60	> 90	> 90	–	–	–
C=CC(=O)N(C)C1CN(C(CC2CC2)c2ccc([C@H](C)Nc3ncc4c(n3)N(C(C)C)C(=O)OC4)cc2)C1 (stereo partly drawn) [Compound 25]	30 to 60	> 90	> 90	–	–	–
C=CC(=O)N1CCN(C(CC2CC2)c2ccc([C@H](C)Nc3ncc4cnc(=O)n(CC)c4n3)cc2)CC1 (stereo partly drawn) [Compound 114]	60 to 90	> 90	> 90	–	–	–
C=CC(=O)N1CCN(C(CC)c2ccc([C@H](C)Nc3ncc4cnc(=O)n(C(C)C)c4n3)cc2)CC1 (stereo partly drawn) [Compound 112]	60 to 90	> 90	> 90	–	–	–
C=CC(=O)NC1CCN(C(CC2CC2)c2ccc(C3(Nc4ncc5c(n4)N(C(C)C)C(=O)OC5)CC3)cc2)CC1 (stereo not drawn) [Compound 32]	30 to 60	30 to 60	> 90	–	–	–
C=CC(=O)N1CC2(C1)CN(C(CC1CC1)c1ccc([C@H](C)Nc3ncc4c(n3)N(CCC)C(=O)OC4)cc1)C2 (stereo partly drawn) [Compound 53]	30 to 60	60 to 90	> 90	–	–	–
C=CC(=O)N1CCN([C@H](CC)c2ccc([C@H](C)Nc3ncc4cnc(=O)n(CC)c4n3)cc2)CC1 [Compound 116-2]	30 to 60	60 to 90	> 90	–	–	–
C=CC(=O)N1CC2(C1)CN(C(CC1(C)CC1)c1ccc([C@H](C)Nc3ncc4c(n3)N(CC)C(=O)OC4)cc1)C2 (stereo partly drawn) [Compound 65]	30 to 60	> 90	> 90	–	–	–

Structure (SMILES)	inhibition at 0.001 µM (1 nM compound) [%]	inhibition at 0.01 µM (10 nM compound) [%]	inhibition at 0.1 µM (100 nM compound) [%]	Inhibition rate of compounds on 2-HG in the supernatant of U87-IDH R132C cells, 1 nM (1 nM compound)	Inhibition rate of compounds on 2-HG in the supernatant of U87-IDH R132C cells, 10 nM (10 nM compound)	Inhibition rate of compounds on 2-HG in the supernatant of U87-IDH R132C cells, 100 nM (100 nM compound)
C=CC(=O)N(C)C1CN(C(CC2CC2)c2ccc([C@H](C)Nc3ncc4c(n3)N(CC)C(=O)OC4)cc2)C1 (stereo partly drawn) [Compound 19]	30 to 60	> 90	> 90	–	–	–
C=CC(=O)N1CC2(C1)CN([C@@H](CC13CC(C1)C3)c1ccc([C@H](C)Nc3ncc4c(n3)N(CC)C(=O)NC4)cc1)C2 [Compound 72-1]	60 to 90	> 90	> 90	–	–	–
C=CC(=O)N1CCN(C(CC(C)C)c2ccc([C@H](C)Nc3ncc4c(n3)N(C(C)C)C(=O)NC4)cc2)CC1 (stereo partly drawn) [Compound 81]	30 to 60	60 to 90	> 90	–	–	–
C=CC(=O)N1CCN(C(CC2CC2)c2ccc(C3(Nc4ncc5c(n4)N(C(C)C)C(=O)OC5)CC3)cc2)CC1 (stereo not drawn) [Compound 148]	< 30	60 to 90	> 90	–	–	–
C=CC(=O)N1CCN(C(CC(C)(C)C)c2ccc([C@H](C)Nc3ncc4c(n3)N(C(C)C)C(=O)OC4)cc2)CC1 (stereo partly drawn) [Compound 146]	30 to 60	60 to 90	> 90	–	–	–
C=CC(=O)NC1CCN(C(CC2CC2)c2ccc(C3(Nc4ncc5c(n4)N(CC)C(=O)OC5)CC3)cc2)CC1 (stereo not drawn) [Compound 27]	30 to 60	60 to 90	> 90	–	–	–
C=CC(=O)N1CC2(C1)CN([C@H](CC13CC(C1)C3)c1ccc([C@H](C)Nc3ncc4c(n3)N(CC)C(=O)NC4)cc1)C2 [Compound 72-2]	30 to 60	60 to 90	> 90	–	–	–
C=CC(=O)N(C)C1CCN(C(CC2CC2)c2ccc(C3(Nc4ncc5c(n4)N(CC)C(=O)OC5)CC3)cc2)CC1 (stereo not drawn) [Compound 29]	< 30	60 to 90	> 90	–	–	–
C=CC(=O)N1CC2(CC([C@H](CC)c3ccc(CNc4ncc5c(n4)N(CC)C(=O)OC5)cc3)C2)C1 [Compound 36-2]	–	–	–	B (B represents an inhibition rate greater than 60% but less than or equal to 90%)	B (B represents an inhibition rate greater than 60% but less than or equal to 90%)	A (A represents an inhibition rate greater than 90%)
C=CC(=O)N1CC2(C1)CN(C(CC1CC1)c1ccc([C@H](C)Nc3ncc4c(n3)N(CC(C)C)C(=O)OC4)cc1)C2 (stereo partly drawn) [Compound 54]	60 to 90	60 to 90	> 90	–	–	–
C=CC(=O)N1CCN(C(CC2CCC2)c2ccc([C@H](C)Nc3ncc4cnc(=O)n(C(C)C)c4n3)cc2)CC1 (stereo partly drawn) [Compound 125]	30 to 60	60 to 90	> 90	–	–	–
C=CC(=O)NC1CN(C(CC2CC2)c2ccc([C@H](C)Nc3ncc4c(n3)N(C(C)C)C(=O)OC4)cc2)C1 (stereo partly drawn) [Compound 23]	30 to 60	60 to 90	> 90	–	–	–
C=CC(=O)N1CCN(C(CC2CC2)c2ccc([C@H](C)Nc3ncc4c(n3)N(CC)C(=O)NC4)cc2)CC1 (stereo partly drawn) [Compound 82]	30 to 60	60 to 90	> 90	–	–	–
C=CC(=O)N1CC2(C1)CN(C(CC(C)(C)C)c1ccc([C@H](C)Nc3ncc4c(n3)N(CC)C(=O)OC4)cc1)C2 (stereo partly drawn) [Compound 59]	30 to 60	60 to 90	> 90	–	–	–
C=CC(=O)N(C)C1CCN(C(CC2CC2)c2ccc([C@H](C)Nc3ncc4c(n3)N(C(C)C)C(=O)OC4)cc2)CC1 (stereo partly drawn) [Compound 24]	30 to 60	> 90	> 90	–	–	–
C=CC(=O)N1CC2(C1)CN([C@@H](CC13CC(C1)C3)c1ccc([C@H](C)Nc3ncc4c(n3)N(CC)C(=O)OC4)cc1)C2 [Compound 66-1]	60 to 90	> 90	> 90	–	–	–
